Source: patent publication US20250066383A1, “PDE 7 MODULATOR COMPOUNDS” (Omeros Corporation, priority 2023, published 2025)

Columns and labels:
PDE7A = PDE7A (Homo sapiens (Human), UniProt Q13946); assay: PDE7A assay: inhibition of PDE7A hydrolysis of [3H]cAMP to [3H]AMP (scintillation proximity, yttrium silicate beads); format: biochemical; conditions: 16 nM [3H]cAMP, 30° C., 20 minutes; read-out: PDE 7A IC50
Method: (§1) PDE7A and PDE7B Assay. Compounds were tested for their activity by measuring the inhibition of PDE7A or PDE7B hydrolysis of [3H]cAMP to [3H]AMP. Generally, eight dilutions of compound were assayed in 50 mM Tris-HCl pH 7.5, 8.3 mM MgCl2, 0.5 mg/mL BSA, 1.7 mM EGTA, 16 nM [3H]cAMP, and 1% DMSO. PDE7A or PDE7B (typically 1-5 ng/mL) (BPS BioSciences, CA) is added to initiate the reaction. The reaction was incubated at 30° C. for 20 minutes. PDE7A and PDE7B hydrolysis was terminated by the addition of yttrium silicate beads (GE Healthcare, RPNQ0150) and counted on a Wallac Microbeta scintillation counter, 1-2 hours following the addition of the beads. Data was analyzed using XLfit […] from which ICso values were obtained.

PDE7B = PDE7B (Homo sapiens (Human), UniProt Q9NP56); assay: PDE7B assay: inhibition of PDE7B hydrolysis of [3H]cAMP to [3H]AMP (scintillation proximity, yttrium silicate beads); format: biochemical; conditions: 16 nM [3H]cAMP, 30° C., 20 minutes; read-out: PDE 7B IC50
Method: as §1

PDE7B, sequence (Q9NP56 whole entry): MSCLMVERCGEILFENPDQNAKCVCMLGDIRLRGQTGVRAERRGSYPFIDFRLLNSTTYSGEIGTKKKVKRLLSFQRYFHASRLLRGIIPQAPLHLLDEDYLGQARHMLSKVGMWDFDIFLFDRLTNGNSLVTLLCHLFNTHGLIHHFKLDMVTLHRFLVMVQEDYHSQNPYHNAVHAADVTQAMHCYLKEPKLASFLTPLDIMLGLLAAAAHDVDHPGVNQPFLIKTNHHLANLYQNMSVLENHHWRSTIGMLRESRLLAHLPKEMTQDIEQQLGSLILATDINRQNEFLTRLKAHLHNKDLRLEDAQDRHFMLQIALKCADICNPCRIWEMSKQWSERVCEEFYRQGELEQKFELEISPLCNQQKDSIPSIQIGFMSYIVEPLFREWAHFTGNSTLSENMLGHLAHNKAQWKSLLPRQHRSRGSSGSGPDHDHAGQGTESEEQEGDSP
PDE7A, sequence (Q13946 whole entry): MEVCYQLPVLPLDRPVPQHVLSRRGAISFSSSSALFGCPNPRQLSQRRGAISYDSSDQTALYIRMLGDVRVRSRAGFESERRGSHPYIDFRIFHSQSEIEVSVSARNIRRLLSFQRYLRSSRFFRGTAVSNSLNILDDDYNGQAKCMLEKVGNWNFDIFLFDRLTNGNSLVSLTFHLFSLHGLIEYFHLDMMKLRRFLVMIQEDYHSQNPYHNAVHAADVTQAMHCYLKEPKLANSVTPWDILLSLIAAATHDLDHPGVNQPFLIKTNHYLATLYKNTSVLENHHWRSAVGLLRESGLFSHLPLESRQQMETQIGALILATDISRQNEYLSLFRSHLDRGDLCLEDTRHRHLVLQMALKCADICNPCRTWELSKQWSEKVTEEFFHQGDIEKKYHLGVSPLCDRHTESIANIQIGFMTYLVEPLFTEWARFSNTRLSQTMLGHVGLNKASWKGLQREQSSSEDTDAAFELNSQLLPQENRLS

Cc1nn(C2CCC(F)(F)CC2)c2sc(C(=O)N[C@H]3C[C@H](N4CCC(F)(F)C4)C3)cc12 [II-3, 1-(4,4-difluorocyclo-hexyl)-N-(3-(3,3-difluoropyrrolidin-1-yl)cyclobutyl)-3-methyl-1H-thieno [2,3-c]pyrazole-5-carboxamide]
IC50 (PDE7A): 10 to 30 nM | IC50 (PDE7B): 10 to 30 nM

CC(=O)N1CCN([C@H]2C[C@H](NC(=O)c3cc4c(C)nn(C5CCC(F)(F)CC5)c4s3)C2)CC1 [II-29, N-((1r,3r)-3-(4-acet-ylpiperazin-1-yl)-cyclobutyl)-1-(4,4-difluorocyclohexyl)-3-methyl-1H-thieno [2,3-c]pyrazole-5-carboxamide]
IC50 (PDE7A): 10 to 30 nM | IC50 (PDE7B): 10 to 30 nM

Cc1nn(C2CCC(F)(F)CC2)c2sc(C(=O)N[C@H]3CC[C@H](N4CC(OC(F)F)C4)CC3)cc12 [II-41, 1-(4,4-difluorocyclo-hexyl)-N-((1r,4r)-4-(3-(difluorometh-oxy)azetidin-1-yl)-cyclohexyl)-3-methyl-1H-thieno [2,3-c]pyrazole-5-carboxamide]
IC50 (PDE7A): 10 to 30 nM | IC50 (PDE7B): < 10 nM

Cc1nn(C2CCC(F)(F)CC2)c2sc(C(=O)N[C@H]3CC[C@H](N4CCN(C5CC5)CC4)CC3)cc12 [II-15, N-((1r,4r)-4-(4-cyclo-propylpiperazin-1-yl)cyclohexyl)-1-(4,4-difluorocyclohexyl)-3-methyl-1H-thieno [2,3-c]pyrazole-5-carboxamide]
IC50 (PDE7A): 10 to 30 nM | IC50 (PDE7B): 10 to 30 nM

COC1CN([C@H]2CC[C@H](NC(=O)c3cc4c(C)nn(CC(C)(C)C)c4s3)CC2)C1 [II-45, N-((1r,4r)-4-(3-methoxyazetidin-1-yl)cyclohexyl)-3-methyl-1-neopentyl-1H-thieno[2,3-c]pyr-azole-5-carboxamide]
IC50 (PDE7A): < 10 nM | IC50 (PDE7B): 10 to 30 nM

Cc1nn(CC(C)(C)C)c2sc(C(=O)N[C@H]3CC[C@H](N4CCOCC4)CC3)cc12 [II-32, 3-methyl-N-((1r,4r)-4-morpholinocyclo-hexyl)-1-neopentyl-1H-thieno[2,3-c]pyr-azole-5-carboxamide]
IC50 (PDE7A): < 10 nM | IC50 (PDE7B): < 10 nM

Cc1nn(CC(C)(C)C)c2sc(C(=O)Nc3ccc(N4CCOCC4)nc3)cc12 [II-35, 3-methyl-N-(6-morpholinopyridin-3-yl)-1-neopentyl-1H-thieno[2,3-c]pyr-azole-5-carboxamide]
IC50 (PDE7A): 10 to 30 nM | IC50 (PDE7B): 10 to 30 nM

Cc1nn(CC(C)C)c2sc(C(=O)N[C@H]3CC[C@H](N4CCN(CC(F)F)CC4)CC3)cc12 [II-8, N-((1r,4r)-4-(4-(2,2-difluoroethyl)piper-azin-1-yl)cyclohexyl)-1-isobutyl-3-methyl-1H-thieno[2,3-c]pyr-azole-5-carboxamide]
IC50 (PDE7A): 30 to 100 nM | IC50 (PDE7B): 30 to 100 nM

Cc1nn(-c2ccccc2Cl)c2sc(C(=O)N[C@H]3CC[C@H](N4CCOCC4)CC3)cc12 [Compound I-2, 1-(2-chlorophenyl)-3-methyl-N-((1r,4r)-4-morpholinocyclohex-yl)-1H-thieno[2,3-c] pyrazole-5-carbox-amide]
IC50 (PDE7A): 10 to 30 nM | IC50 (PDE7B): 10 to 30 nM

Cc1nn(C2CCC(F)(F)CC2)c2sc(C(=O)N[C@H]3CC[C@H](N4CCN(CC(F)(F)F)CC4)CC3)cc12 [II-12, 1-(4,4-difluorocyclo-hexyl)-N-((1r,4r)-4-(4-(2,2-trifluoroeth-yl)piperazin-1-yl)-cyclohexyl)-3-meth-yl-1H-thieno[2,3-c] pyrazole-5-carbox-amide]
IC50 (PDE7A): < 10 nM | IC50 (PDE7B): 10 to 30 nM

Cc1nn(-c2ccccc2Cl)c2sc(C(=O)N[C@H]3C[C@H](N4CCN(C5CC5)CC4)C3)cc12 [Compound I-6, 1-(2-chlorophenyl)-N-((1r,3r)-3-(4-cyclo-propylpiperazin-1-yl)-cyclobutyl)-3-methyl-1H-thieno[2,3-c]pyr-azole-5-carboxamide]
IC50 (PDE7A): 30 to 100 nM | IC50 (PDE7B): 30 to 100 nM

Cc1nn(CC(C)C)c2sc(C(=O)N[C@H]3CC[C@H](N4CCN(C(=O)N(C)C)CC4)CC3)cc12 [II-19, N-((1r,4r)-4-(4-(dimethylcarbamo-yl)piperazin-1-yl)-cyclohexyl)-1-iso-butyl-3-methyl-1H-thieno[2,3-c]pyrazole-5-carboxamide]
IC50 (PDE7A): 10 to 30 nM | IC50 (PDE7B): 30 to 100 nM

Cc1nn(-c2ccccc2Cl)c2sc(C(=O)N[C@H]3CC[C@H](N4CC(OC(F)F)C4)CC3)cc12 [Compound I-7, 1-(2-chlorophenyl)-N-((1r,4r)-4-(3-(difluoro-methoxy)azetidin-1-yl)-cyclohexyl)-3-methyl-1H-thieno[2,3-c]pyr-azole-5-carboxamide]
IC50 (PDE7A): 10 to 30 nM | IC50 (PDE7B): 10 to 30 nM

CC(=O)N1CCN([C@H]2CC[C@H](NC(=O)c3cc4c(C)nn(CC(C)(C)C)c4s3)CC2)CC1 [II-37, N-((1r,4r)-4-(4-acet-ylpiperazin-1-yl)-cyclohexyl)-3-meth-yl-1-neopentyl-1H-thieno[2,3-c]pyr-azole-5-carboxamide]
IC50 (PDE7A): < 10 nM | IC50 (PDE7B): < 10 nM

Cc1nn(CC2CCC2)c2sc(C(=O)N[C@H]3CC[C@H](N4CCN(CC(F)(F)F)CC4)CC3)cc12 [II-21, 1-(cyclobutylmethyl)-3-methyl-N-((1r,4r)-4-(4-(2,2,2-trifluoro-ethyl)piperazin-1-yl)-cyclohexyl)-1H-thieno[2,3-c]pyrazole-5-carboxamide]
IC50 (PDE7A): 10 to 30 nM | IC50 (PDE7B): 30 to 100 nM

Cc1nn(CC(C)(C)C)c2sc(C(=O)N[C@H]3CC[C@H](N4CC(C#N)C4)CC3)cc12 [II-36, N-((1r,4r)-4-(3-cyanoazetidin-1-yl)-cyclohexyl)-3-meth-yl-1-neopentyl-1H-thieno[2,3-c]pyr-azole-5-carboxamide]
IC50 (PDE7A): < 10 nM | IC50 (PDE7B): < 10 nM

Cc1nn(CC(C)C)c2sc(C(=O)N[C@H]3CC[C@H](N4CC(OC(F)F)C4)CC3)cc12 [II-44, N-((1r,4r)-4-(3-(difluoromethoxy)-azetidin-1-yl)cyclo-hexyl)-1-isobutyl-3-methyl-1H-thieno [2,3-c]pyrazole-5-carboxamide]
IC50 (PDE7A): 30 to 100 nM | IC50 (PDE7B): 100 to 500 nM

Cc1nn(C2CCC(F)(F)CC2)c2sc(C(=O)N[C@H]3C[C@@H](N4CCC(F)(F)C4)C3)cc12 [II-39, 1-(4,4-difluorocyclo-hexyl)-N-((1s,3s)-3-(3,3-difluoropyrrol-idin-1-yl)cyclobutyl)-3-methyl-1H-thieno [2,3-c]pyrazole-5-carboxamide]
IC50 (PDE7A): 30 to 100 nM | IC50 (PDE7B): 30 to 100 nM

Cc1nn(CC(C)C)c2sc(C(=O)N[C@H]3CC[C@H](N4CCN(C5CC5)CC4)CC3)cc12 [II-6, N-((1r,4r)-4-(4-cyclo-propylpiperazin-1-yl)-cyclohexyl)-1-isobut-yl-3-methyl-1H-thieno[2,3-c]pyrazole-5-carboxamide]
IC50 (PDE7A): 10 to 30 nM | IC50 (PDE7B): 30 to 100 nM

Cc1nn(CC(C)C)c2sc(C(=O)N[C@H]3CC[C@H](N4CCN(CC(F)(F)F)CC4)CC3)cc12 [II-7, 1-isobutyl-3-methyl-N-((1r,4r)-4-(4-(2,2,2-trifluoroethyl)piper-azin-1-yl)cyclohexyl)-1H-thieno[2,3-c]pyr-azole-5-carboxamide]
IC50 (PDE7A): 30 to 100 nM | IC50 (PDE7B): 30 to 100 nM

Cc1nn(CC(C)(C)C)c2sc(C(=O)N[C@H]3CC[C@H](N4CC(OC(F)F)C4)CC3)cc12 [II-42, N-((1r,4r)-4-(3-(difluoromethoxy)-azetidin-1-yl)cyclo-hexyl)-3-methyl-1-neopentyl-1H-thieno [2,3-c]pyrazole-5-carboxamide]
IC50 (PDE7A): < 10 nM | IC50 (PDE7B): < 10 nM

Cc1nn(CC(C)C)c2sc(C(=O)N[C@H]3CC[C@H](N4CCOCC4)CC3)cc12 [II-14]
IC50 (PDE7A): 30 to 100 nM | IC50 (PDE7B): 30 to 100 nM

Cc1nn(CC(C)C)c2sc(C(=O)N[C@H]3CC[C@H](N4CCN(C(C)C)CC4)CC3)cc12 [II-5, 1-isobutyl-N-((1r,4r)-4-(4-isopropylpiper-azin-1-yl)cyclohexyl)-3-methyl-1H-thieno [2,3-c]pyrazole-5-carboxamide]
IC50 (PDE7A): 30 to 100 nM | IC50 (PDE7B): 10 to 30 nM

Cc1nn(C2CCC(F)(F)CC2)c2sc(C(=O)N[C@H]3C[C@H](N4CCN(C5CC5)CC4)C3)cc12 [II-33, N-((1r,3r)-3-(4-cyclo-propylpiperazin-1-yl)cyclobutyl)-1-(4,4-difluorocyclohexyl)-3-methyl-1H-thieno [2,3-c]pyrazole-5-carboxamide]
IC50 (PDE7A): 10 to 30 nM | IC50 (PDE7B): 10 to 30 nM

Cc1nn(C2CCC(F)(F)CC2)c2sc(C(=O)N[C@H]3CC[C@H](N4CCN(C(C)C)CC4)CC3)cc12 [II-10, 1-(4,4-difluorocyclo-hexyl)-N-((1r,4r)-4-(4-isopropylpiper-azin-1-yl)cyclohex-yl)-3-methyl-1H-thieno[2,3-c]pyra-zole-5-carboxamide]
IC50 (PDE7A): < 10 nM | IC50 (PDE7B): < 10 nM

Cc1nn(CC(C)C)c2sc(C(=O)N[C@H]3CC[C@H](N4CC(C#N)C4)CC3)cc12 [II-43, N-((1r,4r)-4-(3-cyanoazetidin-1-yl)-cyclohexyl)-1-iso-butyl-3-methyl-1H-thieno[2,3-c]pyrazole-5-carboxamide]
IC50 (PDE7A): 10 to 30 nM | IC50 (PDE7B): 10 to 30 nM

Cc1nn(CC(C)(C)C)c2sc(C(=O)N[C@H]3C[C@H](N4CCN(C5CC5)CC4)C3)cc12 [II-34, N-((1r,3r)-3-(4-cyclo-propylpiperazin-1-yl)cyclobutyl)-3-methyl-1-neopentyl-1H-thieno[2,3-c] pyrazole-5-carbox-amide]
IC50 (PDE7A): 10 to 30 nM | IC50 (PDE7B): 30 to 100 nM

Cc1nn(CC2CCC2)c2sc(C(=O)N[C@H]3CC[C@H](N4CC(F)(F)C4)CC3)cc12 [II-22, 1-(cyclobutylmethyl)-N-((1r,4r)-4-(3,3-difluoroazetidin-1-yl)cyclohexyl)-3-methyl-1H-thieno [2,3-c]pyrazole-5-carboxamide]
IC50 (PDE7A): 30 to 100 nM | IC50 (PDE7B): 30 to 100 nM
